How the values were obtained:
Barnyard Grass = assay: General herbicidal effect alone/in combination, barnyard grass; type: in vivo; conditions: alone
Experimental: (§1) Various of the compounds to be employed as active agent in accordance with the present invention were evaluated for preemergent application to various species of plants. In this evaluation, a soil was prepared consisting of one part masonry sand and one part shredded top soil blended together in a cement mixer. One gallon of this soil was placed in a 25 × 35 cm. galvanized flat and was patted down with a bench brush until level. A three-row marker was used to make 21/2 cm. deep furrows in approximately two-fifths of the flat. Crop seeds consisting of four kernels of corn, five cotton seeds and five soybean seeds were placed in these furrows. A four-row template was then placed on the remaining soil and the indicated approximate numbers of each of the following seeds were planted, one species to each section: foxtail (millet), 80-100 seeds; velvetleaf (40-50 seeds); rough pigweed (150-250 seeds); and large crabgrass (100-150 seeds).
(§2) Sufficient soil was added to cover the entire flat. Thus, the weed seeds were covered to a depth of about 6 mm. and the crop seeds were covered to a depth of about 3 cm.
(§3) In assaying the effect of the composition as preemergent herbicides, a flat prepared as above, taken either on the day of planting or on the next day, was placed in a chamber equipped with a turntable and an air exhaust. The herbicidal composition, either a spray-type emulsion or a wettable powder, was applied to the flat with a modified DeVilbiss atomizer hooked to an air source. Twelve and one-half milliliters of the composition under test were applied to each flat either on the day of planting or the succeeding day. Injury ratings and observations as to type of injury were made eleven to twelve days after treatment. The injury rating scale used was as follows:
(§4) 4--death When more than one determination was carried out at a given rate, an average value was calculated for the injury rating. Each compound evaluated was formulated as a spray by one of the following procedures. In one method the particular compound was wetted by grinding in a mortar with one part of polyoxyethylene sorbitan monolaurate. Five hundred parts of water were added slowly to the resultant creamy paste to give an aqueous dispersion with a surfactant concentration of 0.2 percent. This dispersion was entirely satisfactory for spray application. In a second procedure the compound was dissolved in one volume of acetone, and the acetone solution was diluted with nineteen volumes of water containing 0.1 percent of polyoxyethylene sorbitan monolaurate.
(§5) 6-Chloro-1-hydroxy-2-(trifluoromethyl)-1H-imidazo(4,5-b)pyridine was evaluated in combination with 2-chloro-4-ethylamino-6-isopropylamino-s-triazine and separately in combination with 2-chloro-2',6'-diethyl-N-(methoxymethyl)acetanilide for the control of plants. The evaluations were conducted as described in Examples 49-52, except that the rates of compound differed and the species were different. General herbicidal effect was rated on a scale of 0-10, with 0 = no injury and 10 = death. Observations were also made for the following other specific phytotoxic effects.

Lambs Quarter = assay: General herbicidal effect alone/in combination, lambsquarter; type: in vivo; conditions: alone
Experimental: as §1, §2, §3, §4, §5

Corn [1] = assay: General herbicidal effect alone/in combination, corn (second Corn column); type: in vivo; conditions: alone
Experimental: as §1, §2, §3, §4, §5

Large Crabgrass = assay: General herbicidal effect alone/in combination, large crabgrass; type: in vivo; conditions: alone
Experimental: as §1, §2, §3, §4, §5

Velvet Leaf [2] = assay: General herbicidal effect alone/in combination, velvetleaf; type: in vivo; conditions: alone
Experimental: as §1, §2, §3, §4, §5

Pigweed [3] = assay: General herbicidal effect alone/in combination, pigweed; type: in vivo; conditions: alone
Experimental: as §1, §2, §3, §4, §5

Rice = assay: General herbicidal effect alone/in combination, rice; type: in vivo; conditions: alone
Experimental: as §1, §2, §3, §4, §5

Corn [4] = assay: General herbicidal effect alone/in combination, corn (first Corn column); type: in vivo; conditions: alone
Experimental: as §1, §2, §3, §4, §5

Morning glory = assay: General herbicidal effect alone/in combination, morning glory; type: in vivo; conditions: alone
Experimental: as §1, §2, §3, §4, §5

Johnson Grass = assay: General herbicidal effect alone/in combination, Johnson grass; type: in vivo; conditions: alone
Experimental: as §1, §2, §3, §4, §5

Sorghum = assay: General herbicidal effect alone/in combination, sorghum; type: in vivo; conditions: alone
Experimental: as §1, §2, §3, §4, §5

Foxtail Millet = assay: General herbicidal effect alone/in combination, foxtail millet; type: in vivo; conditions: alone
Experimental: as §1, §2, §3, §4, §5

Ragweed = assay: General herbicidal effect alone/in combination, ragweed; type: in vivo; conditions: alone
Experimental: as §1, §2, §3, §4, §5

Jimsonweed = assay: General herbicidal effect alone/in combination, jimsonweed; type: in vivo; conditions: alone
Experimental: as §1, §2, §3, §4, §5

Crabgrass = assay: Postemergent injury rating, crabgrass; type: in vivo, large crabgrass; parameters: key: injury rating scale, 4 = death; conditions: 8 lbs/acre
Experimental: as §1, §2, §3, §4
(§6) Representative compounds of the present invention were evaluated for postemergent application to plants including corn and several weed species. The evaluation was carried out in accordance with the procedures of Examples 49-52 except that the test solutions were applied about 9-12 days after the preparation and seeding of the flats.

Pigweed [5] = assay: Postemergent injury rating, pigweed; type: in vivo, rough pigweed; parameters: key: injury rating scale, 4 = death; conditions: 8 lbs/acre
Experimental: as §1, §2, §3, §4, §6

Velvet Leaf [6] = assay: Postemergent injury rating, velvetleaf; type: in vivo; conditions: 8 lbs/acre
Experimental: as §1, §2, §3, §4, §6

Foxtail = assay: Postemergent injury rating, foxtail; type: in vivo, foxtail (millet); parameters: key: injury rating scale, 4 = death; conditions: 8 lbs/acre
Experimental: as §1, §2, §3, §4, §6

Corn [7] = assay: Postemergent injury rating, corn; type: in vivo; parameters: key: injury rating scale, 4 = death; conditions: 8 lbs/acre
Experimental: as §1, §2, §3, §4, §6

Compound: CCNc1nc(Cl)nc(NC(C)C)n1 [B, 2-chloro-4-ethylamino-6-isopropylamino-s-triazine]
- herbicidal effect, Barnyard Grass (Barnyard Grass; 0.25 lbs/A): 2S
- herbicidal effect, Barnyard Grass (Barnyard Grass; 0.5 lbs/A): 5SB
- herbicidal effect, Barnyard Grass (Barnyard Grass; 1.0 lbs/A): 4SB
- herbicidal effect, Barnyard Grass (Barnyard Grass; 2.0 lbs/A): 8BS
- herbicidal effect, Lambs Quarter (Lambs Quarter; 0.25 lbs/A): 9BS
- herbicidal effect, Lambs Quarter (Lambs Quarter; 0.5 lbs/A): 9BS
- herbicidal effect, Lambs Quarter (Lambs Quarter; 1.0 lbs/A): 9.5BS
- herbicidal effect, Lambs Quarter (Lambs Quarter; 2.0 lbs/A): 9.5BS
- herbicidal effect, Corn (Corn [1]; 0.25 lbs/A): 0
- herbicidal effect, Corn (Corn [1]; 0.5 lbs/A): 0
- herbicidal effect, Corn (Corn [1]; 1.0 lbs/A): 0
- herbicidal effect, Corn (Corn [1]; 2.0 lbs/A): 0
- herbicidal effect, Large Crabgrass (Large Crabgrass; 0.25 lbs/A): 0
- herbicidal effect, Large Crabgrass (Large Crabgrass; 0.5 lbs/A): 2S
- herbicidal effect, Large Crabgrass (Large Crabgrass; 1.0 lbs/A): 5S
- herbicidal effect, Large Crabgrass (Large Crabgrass; 2.0 lbs/A): 6BS
- herbicidal effect, Velvet leaf (Velvet Leaf [2]; 0.25 lbs/A): 3S
- herbicidal effect, Velvet leaf (Velvet Leaf [2]; 0.5 lbs/A): 3S
- herbicidal effect, Velvet leaf (Velvet Leaf [2]; 1.0 lbs/A): 7BS
- herbicidal effect, Velvet leaf (Velvet Leaf [2]; 2.0 lbs/A): 10D
- herbicidal effect, Pigweed (Pigweed [3]; 0.25 lbs/A): 9BS
- herbicidal effect, Pigweed (Pigweed [3]; 0.5 lbs/A): 10D
- herbicidal effect, Pigweed (Pigweed [3]; 1.0 lbs/A): 10D
- herbicidal effect, Pigweed (Pigweed [3]; 2.0 lbs/A): 10D
- herbicidal effect, Rice (Rice; 0.25 lbs/A): 4B
- herbicidal effect, Rice (Rice; 0.5 lbs/A): 4B
- herbicidal effect, Rice (Rice; 1.0 lbs/A): 7B
- herbicidal effect, Rice (Rice; 2.0 lbs/A): 8B
- herbicidal effect, Corn (Corn [4]; 0.25 lbs/A): 0
- herbicidal effect, Corn (Corn [4]; 0.5 lbs/A): 0
- herbicidal effect, Corn (Corn [4]; 1.0 lbs/A): 0
- herbicidal effect, Corn (Corn [4]; 2.0 lbs/A): 0
- herbicidal effect, Morning glory (Morning glory; 0.25 lbs/A): 8BS
- herbicidal effect, Morning glory (Morning glory; 0.5 lbs/A): 9BS
- herbicidal effect, Morning glory (Morning glory; 1.0 lbs/A): 10D
- herbicidal effect, Morning glory (Morning glory; 2.0 lbs/A): 10D
- herbicidal effect, Johnson Grass (Johnson Grass; 0.25 lbs/A): 3S
- herbicidal effect, Johnson Grass (Johnson Grass; 0.5 lbs/A): 0
- herbicidal effect, Johnson Grass (Johnson Grass; 1.0 lbs/A): 0
- herbicidal effect, Johnson Grass (Johnson Grass; 2.0 lbs/A): 2S
- herbicidal effect, Sorghum (Sorghum; 0.25 lbs/A): 0
- herbicidal effect, Sorghum (Sorghum; 0.5 lbs/A): 0
- herbicidal effect, Sorghum (Sorghum; 1.0 lbs/A): 1B
- herbicidal effect, Sorghum (Sorghum; 2.0 lbs/A): 2B
- herbicidal effect, Foxtail Millet (Foxtail Millet; 0.25 lbs/A): 0
- herbicidal effect, Foxtail Millet (Foxtail Millet; 0.5 lbs/A): 0
- herbicidal effect, Foxtail Millet (Foxtail Millet; 1.0 lbs/A): 4SB
- herbicidal effect, Foxtail Millet (Foxtail Millet; 2.0 lbs/A): 5SB
- herbicidal effect, Ragweed (Ragweed; 0.25 lbs/A): 5S
- herbicidal effect, Ragweed (Ragweed; 0.5 lbs/A): 7SB
- herbicidal effect, Ragweed (Ragweed; 1.0 lbs/A): 8BS
- herbicidal effect, Ragweed (Ragweed; 2.0 lbs/A): 10D
- herbicidal effect, Jimsonweed (Jimsonweed; 0.25 lbs/A): 9BS
- herbicidal effect, Jimsonweed (Jimsonweed; 0.5 lbs/A): 9BS
- herbicidal effect, Jimsonweed (Jimsonweed; 1.0 lbs/A): 9BS
- herbicidal effect, Jimsonweed (Jimsonweed; 2.0 lbs/A): 9BS

Compound: Nc1c(Br)nc2nc(C(F)(F)F)n(O)c2c1Br [5,7-dibromo-6-amino-1-hydroxy-2-(trifluoromethyl)-1H-imidazo(4,5-b)pyridine]
- Injury Rating, Crabgrass (Crabgrass): 3
- Injury Rating, Pigweed (Pigweed [5]): 3
- Injury Rating, Velvet Leaf (Velvet Leaf [6]): 2
- Injury Rating, Foxtail (Foxtail): 3
- Injury Rating, Corn (Corn [7]): 1

Compound: On1c(C(F)(F)F)nc2nc(Br)c(Cl)c(Br)c21 [5,7-dibromo-6-chloro-1-hydroxy-2-(trifluoromethyl)-1H-imidazo(4,5-b)pyridine]
- Injury Rating, Crabgrass (Crabgrass): 4
- Injury Rating, Pigweed (Pigweed [5]): 4
- Injury Rating, Velvet Leaf (Velvet Leaf [6]): 3
- Injury Rating, Foxtail (Foxtail): 4
- Injury Rating, Corn (Corn [7]): 1

Source: patent US4087432A, “1H-imidazo(4,5-b)pyridine compounds” (Eli Lilly and Company, priority 1975, dated 1978)
